Results as given in patent US20230295131A1, “INHIBITORS OF RHO-ASSOCIATED COILED-COIL KINASE” (Angion Biomedica Corp., priority 2020, published 2023).

Experiments:
[1] = target: T1, ROCK1 (Homo sapiens, UniProt Q13464); test: ROCK1 kinase binding affinity, DiscoverX KINOMEscan KdELECT; details: 11-point 3-fold dilution
T1 construct: T7 phage fusion (kinase-tagged phage) or DNA tag for qPCR detection
How it was run: (§1)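 Competition binding of DNA- or phage-tagged kinase to immobilised ligand beads, with bound kinase quantified by qPCR of eluates.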

[2] = target: T2, ROCK2 (Homo sapiens, UniProt O75116); test: ROCK2 kinase binding affinity, DiscoverX KINOMEscan KdELECT
T2 construct: T7 phage fusion (kinase-tagged phage) or DNA tag for qPCR detection
How it was run: as §1

[3] = tested on: Hepatic stellate cells; test: Gel contraction assay (TGFβ1-induced); format: cell-based; details: test compound at 100 μM, 1 hour pretreatment, TGFβ1 24 hours
Description: Hepatic stellate cells were plated onto collagen coated plates and pretreated with test compound (at 100 μM) for 1 hour. TGFβ1 is then added for 24 hours, and images are taken.

[4] = tested on: CTGF in mouse embryonic fibroblasts (MEFs); test: TGFβ1-induced CTGF production assay; format: cell-based; details: 1 hour pretreatment before TGFβ1, real time PCR
Description: Mouse embryonic fibroblasts (MEFs) were isolated, starved overnight, then pretreated with Ex. 65 or Ex. 93 for 1 hour prior to addition of TGFβ1. RNA was isolated from cells and real time PCR was performed for CTGF.

[5] = Pharmacokinetic profile, compound levels in the portal vein; format: in vivo, C57BL/6 Mouse
Description: For assessing compound levels in the portal vein, 7-8 week old male C57BL/6 animals were dosed orally with 10 mg/kg compound of Ex. 65 (mesylate salt) in 0.5% carboxymethyl cellulose (CMC) in water. Serum samples were collected from the portal vein at 15, 30, 60 120 and 240 minutes after dosing. Samples were analyzed for compound by LC-MS.

[6] = Pharmacokinetic profile, compound levels in the vena cava; format: in vivo, C57BL/6 Mouse; details: po 10 mg/kg in 0.5% CMC suspension
Description: For assessing compound levels in the vena cava, 10-11 week old male C57BL/6 animals were dosed orally with 10 mg/kg of Ex. 65 (mesylate salt) in 0.5% carboxymethyl cellulose (CMC) in water. Serum samples were collected from the portal vein at 15, 30, 60 120, 240, 360 and 480 minutes after dosing. Samples were analyzed for compound concentration by LC-MS.

[7] = tested on: fast-food diet (FFD)+CCl4+sugar-induced NASH; test: Fast-food diet (FFD)+CCl4+sugar-induced NASH model; format: in vivo, mice; details: 30 mg/kg, IP, twice-daily for two weeks; for hepatic lipid accumulation (liver steatosis): FIG. 3; for NAFLD activity score (NAS): FIG. 4
Description: (§2) 2. Pharmacodynamic and Efficacy Profile in Hepatic Diseases: • The activity of Ex. 65 was evaluated in a model of fast-food diet (FFD)+CCl4+sugar-induced NASH. Adult male mice were randomized to vehicle of 30 mg/kg test compound, IP, twice-daily for two weeks. Treatment with Ex. 65 reduced hepatic lipid accumulation (FIG. 3) and NAFLD activity score (NAS; FIG. 4).

[8] = tested on: miRNAs in hepatic homogenates; test: miRNA quantification in liver homogenates of the NASH model; format: in vivo, mice
Description: as §2
MicroRNAs (miRNAs) from liver homogenates from the study described above were quantified. Compared to healthy livers, 65 differentially expressed miRNAs from NASH livers were identified, of which 22 were corrected by treatment with Ex. 65 (see Table 6).

[9] = 12-16 weeks of dosing in healthy volunteers and patients; cited from earlier work
[10] = tested on: fibroblasts; details: fibroblasts treated with KD025; cited from earlier work
[11] = tested on: murine autoimmune disease; details: KD025 administration; cited from earlier work
[12] = male, C57BL/6, mouse, portal vein serum, po 10 mg/kg in 0.5% CMC suspension, mesylate salt, serum
[13] = male, C57BL/6, mouse, vena cava serum, mesylate salt, serum
[14] = 30 mg/kg IP twice-daily two weeks

T2 sequence (O75116 whole entry, the tested form may be a part): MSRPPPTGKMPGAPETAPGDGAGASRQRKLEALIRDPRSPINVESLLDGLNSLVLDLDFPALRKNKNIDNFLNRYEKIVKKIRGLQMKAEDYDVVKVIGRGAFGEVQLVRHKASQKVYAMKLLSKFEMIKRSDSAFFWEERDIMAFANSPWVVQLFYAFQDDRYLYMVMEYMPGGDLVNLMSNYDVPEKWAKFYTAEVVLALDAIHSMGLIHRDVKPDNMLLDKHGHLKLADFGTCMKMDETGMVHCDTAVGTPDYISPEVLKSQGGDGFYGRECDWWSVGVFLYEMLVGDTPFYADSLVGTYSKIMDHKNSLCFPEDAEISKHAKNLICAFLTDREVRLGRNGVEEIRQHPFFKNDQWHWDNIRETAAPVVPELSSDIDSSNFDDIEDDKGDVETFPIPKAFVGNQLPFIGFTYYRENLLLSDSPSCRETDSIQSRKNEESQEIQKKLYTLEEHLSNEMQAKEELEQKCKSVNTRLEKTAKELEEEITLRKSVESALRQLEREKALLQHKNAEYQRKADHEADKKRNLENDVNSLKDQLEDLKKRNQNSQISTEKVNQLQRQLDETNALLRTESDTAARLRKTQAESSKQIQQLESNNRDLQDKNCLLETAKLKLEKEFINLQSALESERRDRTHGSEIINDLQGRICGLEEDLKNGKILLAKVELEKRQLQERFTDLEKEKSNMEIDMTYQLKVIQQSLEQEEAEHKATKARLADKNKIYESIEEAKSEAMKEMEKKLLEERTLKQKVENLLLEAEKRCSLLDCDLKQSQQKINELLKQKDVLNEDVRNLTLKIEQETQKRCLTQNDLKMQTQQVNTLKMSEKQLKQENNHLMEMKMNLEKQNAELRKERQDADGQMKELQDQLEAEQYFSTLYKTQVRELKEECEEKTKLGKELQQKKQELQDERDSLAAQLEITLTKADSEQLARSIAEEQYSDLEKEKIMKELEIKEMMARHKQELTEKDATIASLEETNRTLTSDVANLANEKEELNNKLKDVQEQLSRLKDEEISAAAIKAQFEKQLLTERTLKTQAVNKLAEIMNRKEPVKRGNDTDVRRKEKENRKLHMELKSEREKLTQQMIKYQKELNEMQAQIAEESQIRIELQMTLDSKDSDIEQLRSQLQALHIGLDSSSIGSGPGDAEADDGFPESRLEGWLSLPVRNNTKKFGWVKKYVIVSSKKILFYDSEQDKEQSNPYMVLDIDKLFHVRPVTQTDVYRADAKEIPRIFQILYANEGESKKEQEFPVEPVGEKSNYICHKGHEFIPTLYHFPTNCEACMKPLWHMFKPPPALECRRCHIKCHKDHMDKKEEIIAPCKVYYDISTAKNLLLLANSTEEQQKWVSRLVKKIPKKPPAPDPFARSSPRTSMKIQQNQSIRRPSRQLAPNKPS
T1 sequence (Q13464 whole entry, the tested form may be a part): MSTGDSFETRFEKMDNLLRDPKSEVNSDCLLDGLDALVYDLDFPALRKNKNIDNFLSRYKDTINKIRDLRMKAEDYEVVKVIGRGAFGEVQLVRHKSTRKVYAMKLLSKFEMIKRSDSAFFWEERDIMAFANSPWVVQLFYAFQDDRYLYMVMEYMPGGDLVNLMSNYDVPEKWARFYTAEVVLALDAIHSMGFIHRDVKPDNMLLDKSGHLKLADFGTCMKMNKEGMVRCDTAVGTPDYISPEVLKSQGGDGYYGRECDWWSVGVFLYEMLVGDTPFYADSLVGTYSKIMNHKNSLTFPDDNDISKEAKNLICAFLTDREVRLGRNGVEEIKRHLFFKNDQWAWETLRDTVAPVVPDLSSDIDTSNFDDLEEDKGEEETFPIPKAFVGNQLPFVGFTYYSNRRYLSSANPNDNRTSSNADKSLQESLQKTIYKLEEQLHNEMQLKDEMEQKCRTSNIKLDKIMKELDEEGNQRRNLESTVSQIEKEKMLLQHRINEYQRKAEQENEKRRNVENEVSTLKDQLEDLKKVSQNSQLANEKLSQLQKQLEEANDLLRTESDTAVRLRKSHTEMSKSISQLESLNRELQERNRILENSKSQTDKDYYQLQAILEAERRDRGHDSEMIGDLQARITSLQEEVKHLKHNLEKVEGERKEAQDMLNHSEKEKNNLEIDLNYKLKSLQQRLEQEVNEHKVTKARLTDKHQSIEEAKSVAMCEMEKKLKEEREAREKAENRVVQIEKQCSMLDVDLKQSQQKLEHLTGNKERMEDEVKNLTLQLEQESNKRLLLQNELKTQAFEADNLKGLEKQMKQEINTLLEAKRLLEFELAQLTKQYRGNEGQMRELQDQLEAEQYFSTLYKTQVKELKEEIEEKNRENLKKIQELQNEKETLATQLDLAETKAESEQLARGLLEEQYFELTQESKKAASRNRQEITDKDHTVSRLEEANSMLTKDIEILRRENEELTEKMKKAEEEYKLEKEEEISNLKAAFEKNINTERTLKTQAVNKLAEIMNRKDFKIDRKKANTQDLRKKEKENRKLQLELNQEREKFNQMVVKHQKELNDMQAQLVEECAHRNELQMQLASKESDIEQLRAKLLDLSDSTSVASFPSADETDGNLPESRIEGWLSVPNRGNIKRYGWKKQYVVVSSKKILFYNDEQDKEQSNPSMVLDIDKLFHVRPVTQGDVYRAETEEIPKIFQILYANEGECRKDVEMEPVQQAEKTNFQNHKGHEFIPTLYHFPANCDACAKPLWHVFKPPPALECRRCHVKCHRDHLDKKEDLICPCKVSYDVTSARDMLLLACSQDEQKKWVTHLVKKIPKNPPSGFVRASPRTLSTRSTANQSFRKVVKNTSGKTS

With O[C@H]1CC[C@@H](Nc2nccc(-c3nccc(C#Cc4ccc5[nH]ncc5c4)n3)n2)CC1 [Ex. 65, (1s,4s)-4-((4-((1H-Indazol-5-yl)ethynyl)-[2,4′-bipyrimidin]-2′-yl)amino)cyclohexanol] the Kd [1] was 0.1 to 0.99 µM, the Kd ([2]; KINOMEscan KdELECT, 11-point 3-fold dilution, read-out: Kd (μM) ROCK2) was less than 0.01 µM and the “ROCK2 Selectivity” value ([2]; selectivity for ROCK2 over ROCK1 from Kd) was “**** (>500-fold selectivity for ROCK2)”. The “TGFβ1-induced gel contraction in hepatic stellate cells” value [3] was “significantly attenuated”, the “CTGF production in embryonic fibroblasts” value [4] was “attenuated” and the AUC [5, 12] was 697 ng·h/mL. For the same compound, the Cmax [5, 12] was 1540 nM, the “oral bioavailability and liver entry” value ([5]; mice, po, portal vein versus vena cava) was “preferential liver entry” and the “Cmax as multiple of Kd, in portal vein” value ([5]; po 10 mg/kg in 0.5% CMC suspension) was 1904*Kd. For the same compound, the “F % in portal vein” value ([5]; po 10 mg/kg in 0.5% CMC suspension, mesylate salt) was 22%, the AUC [6, 13] was 145 ng·h/mL and the Cmax [6, 13] was 258 nM. For the same compound, the “Cmax as multiple of Kd, in vena cava” value [6] was 318*Kd, the “F % in vena cava” value ([6]; mesylate salt) was 4.6% and the “hepatic lipid accumulation (liver steatosis)” value [7] was “reduced”. The “hepatic lipid accumulation (liver steatosis)” value ([7]; listed as compound 65) was “reduction”, the “NAFLD activity score (NAS)” value [7] was “reduced” and the “NAFLD activity score (NAS)” value ([7]; listed as compound 65) was “reduction”. For the same compound, the “hepatic levels of oncomiR-181a” value [8, 14] was “reduced”, the “hepatic levels of oncomiR-425” value [8, 14] was “reduced” and the “Mean (disease + Ex. 65) mmu-miR-5123” value ([8]; hepatic homogenates, mean control 3.22, disease 1.53) was 3.54. For the same compound, the “Mean (disease + Ex. 65) mmu-miR-871-3p” value ([8]; hepatic homogenates, mean control 4.08, disease 1.53) was 7.98, the “Mean (disease + Ex. 65) mmu-miR-7115-5p” value ([8]; hepatic homogenates, mean control 4.31, disease 8.54) was 2.41 and the “Mean (disease + Ex. 65) mmu-let-7k” value ([8]; hepatic homogenates, mean control 9.04, disease 13.85) was 7.72. The “Mean (disease + Ex. 65) mmu-miR-93-3p” value ([8]; hepatic homogenates, mean control 39.45, disease 76.50) was 46.52, the “Mean (disease + Ex. 65) mmu-miR-542-5p” value ([8]; hepatic homogenates, mean control 66.04, disease 74.42) was 39.03 and the “Mean (disease + Ex. 65) mmu-miR-27a-5p” value ([8]; hepatic homogenates, mean control 71.79, disease 98.65) was 53.13. For the same compound, the “Mean (disease + Ex. 65) mmu-miR-106a-5p” value ([8]; hepatic homogenates, mean control 115.29, disease 149.51) was 114.11, the “Mean (disease + Ex. 65) mmu-miR-125a-3p” value ([8]; hepatic homogenates, mean control 245.12, disease 297.02) was 182.06 and the “Mean (disease + Ex. 65) mmu-miR-501-3p” value ([8]; hepatic homogenates, mean control 364.92, disease 489.94) was 296.78. For the same compound, the “Mean (disease + Ex. 65) mmu-miR-339-3p” value ([8]; hepatic homogenates, mean control 427.46, disease 502.07) was 426.25, the “Mean (disease + Ex. 65) mmu-miR-802-5p” value ([8]; hepatic homogenates, mean control 1094.11, disease 614.54) was 899.47 and the “Mean (disease + Ex. 65) mmu-miR-322-3p” value ([8]; hepatic homogenates, mean control 1115.59, disease 1416.47) was 949.59. For the same compound, the “Mean (disease + Ex. 65) mmu-miR-17-3p” value ([8]; hepatic homogenates, mean control 1200.81, disease 1454.34) was 1161.55, the “Mean (disease + Ex. 65) mmu-miR-351-5p” value ([8]; hepatic homogenates, mean control 1248.83, disease 1603.84) was 889.81 and the “Mean (disease + Ex. 65) mmu-miR-99b-5p” value ([8]; hepatic homogenates, mean control 1421.33, disease 1933.41) was 1099.61. For the same compound, the “Mean (disease + Ex. 65) mmu-miR-425-5p” value ([8]; hepatic homogenates, mean control 1716.15, disease 2037.69) was 1524.04, the “Mean (disease + Ex. 65) mmu-miR-181a-5p” value ([8]; hepatic homogenates, mean control 3789.12, disease 5124.26) was 2941.29 and the “Mean (disease + Ex. 65) mmu-miR-320-3p” value ([8]; hepatic homogenates, mean control 4080.44, disease 5204.90) was 3896.99. The “Mean (disease + Ex. 65) mmu-miR-93-5p” value ([8]; hepatic homogenates, mean control 36188.01, disease 41626.66) was 31184.61, the “Mean (disease + Ex. 65) mmu-miR-143-3p” value ([8]; hepatic homogenates, mean control 67983.70, disease 80209.00) was 58204.03 and the “Mean (disease + Ex. 65) mmu-miR-191-5p” value ([8]; hepatic homogenates, mean control 118228.91, disease 141957.68) was 119365.71. For the same compound, the “number of differentially expressed miRNAs of NASH livers corrected by treatment” value ([8]; of 65 differentially expressed miRNAs, 30 mg/kg IP twice-daily two weeks) was 22.

In the case of CC(C)NC(=O)COc1cccc(-c2nc(Nc3ccc4[nH]ncc4c3)c3ccccc3n2)c1 [KD025], the “hemodynamic or other side effects” value [9] is listed as “no hemodynamic or other side effects”, the “expression of profibrotic mRNA including CTGF” value [10] is listed as “decreased” and the “expression of pro-inflammatory, fibrosis-linked cytokines” value [11] is listed as “decreased”. For the same compound, the murine autoimmune disease [11] was “mitigated”.
